Here are results for 1 molecule from US20110212968A1, “PHENETHYLAMIDE DERIVATIVES AND THEIR HETEROCYCLIC ANALOGUES” (priority 2008, published 2011).

Experiment [1] deals with T1, human orexin-1 receptor (Homo sapiens, UniProt O43613).
T1 construct: expressed in transfected cells; host or cells: CHO (Chinese hamster ovary) cells, kept under G418 selection
T1 sequence (O43613 1-425): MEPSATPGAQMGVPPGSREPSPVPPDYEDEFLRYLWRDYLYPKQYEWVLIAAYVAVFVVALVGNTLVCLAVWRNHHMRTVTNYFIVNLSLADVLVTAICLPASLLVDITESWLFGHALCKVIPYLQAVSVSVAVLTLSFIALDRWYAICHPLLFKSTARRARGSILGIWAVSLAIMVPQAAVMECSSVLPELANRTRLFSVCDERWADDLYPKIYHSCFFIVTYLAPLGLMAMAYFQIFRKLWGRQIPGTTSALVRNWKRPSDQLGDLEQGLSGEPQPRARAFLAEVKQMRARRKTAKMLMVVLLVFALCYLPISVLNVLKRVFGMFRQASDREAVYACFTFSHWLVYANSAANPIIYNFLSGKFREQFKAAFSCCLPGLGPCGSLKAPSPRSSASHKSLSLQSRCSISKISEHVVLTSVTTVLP
Nature of the experiment: Intracellular calcium measurement (FLIPR Tetra), orexin receptor antagonistic activity, OX1. The format is cell-based. The following applies: CHO cells expressing human orexin-1 receptor, 3 nM orexin-A, conditions B, normalized (*) using IC50 of on-plate reference compound. The procedure, abridged:
(§1)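 Recombinant CHO cells expressing human OX1 or OX2, loaded with fluo-4 AM plus probenecid, were preincubated with antagonist 10 min, then stimulated with 3 nM human orexin-A. Peak fluorescence was compared with vehicle; IC50 derived, sometimes normalized to an on-plate reference compound; two pipetting/cell-splitting conditions were used.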

Experiment [2] concerns the target T2, human orexin-2 receptor (Homo sapiens, UniProt O43614).
T2 construct: expressed in transfected cells; host or cells: CHO (Chinese hamster ovary) cells, kept under G418 selection
T2 sequence (O43614 1-444): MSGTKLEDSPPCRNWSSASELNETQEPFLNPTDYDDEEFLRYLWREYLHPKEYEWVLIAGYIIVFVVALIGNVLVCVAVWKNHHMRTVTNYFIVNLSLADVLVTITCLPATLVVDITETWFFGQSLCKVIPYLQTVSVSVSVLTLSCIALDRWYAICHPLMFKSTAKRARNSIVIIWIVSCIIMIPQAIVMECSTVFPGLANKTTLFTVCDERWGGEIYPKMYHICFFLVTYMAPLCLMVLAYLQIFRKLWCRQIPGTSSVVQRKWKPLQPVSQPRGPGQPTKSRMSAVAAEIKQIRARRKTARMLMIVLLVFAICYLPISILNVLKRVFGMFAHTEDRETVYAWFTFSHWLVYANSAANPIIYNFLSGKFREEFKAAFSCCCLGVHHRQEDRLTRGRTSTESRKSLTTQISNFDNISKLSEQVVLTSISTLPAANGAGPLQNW
Nature of the experiment: Intracellular calcium measurement (FLIPR Tetra), orexin receptor antagonistic activity, OX2. The format is cell-based. The following applies: CHO cells expressing human orexin-2 receptor, 3 nM orexin-A, conditions B, normalized (*) using IC50 of on-plate reference compound. The procedure, abridged: as §1
On the technique in general: A change in cytosolic calcium serves as a functional read-out for many receptors and channels.

For `Cc1cccc(-c2oc(C3CC3)nc2C(=O)N(CCc2c[nH]c3ccccc23)CC2CC2)c1` [Example 607, 2-Cyclopropyl-5-m-tolyl-oxazole-4-carboxylic acid cyclopropylmethyl-[2-(1H-indol-3-yl)-ethyl]-amide], the results for the 50% inhibitory concentration (IC50) in experiment [1] and in experiment [2] were 383 nM and 35 nM, respectively.

As usually defined, the IC50 is the concentration that gives 50% inhibition.
